Test results as given in patent US12178786B2, “Combination of cellular immunotherapy” (CRAGE medical Co., Limited, priority 2018, dated 2024).

How the values were obtained:
[1] = compound II administrated alone in the clinical trial; cited from earlier work
[2] = test system: IL2; assay: Effect of sorafenib on cytokine secretion of CAR T cells (Cytometric Bead Array); type: cell-based, human; settings: general statement of the applicant's finding
Method: As for the specific steps, referring to the steps in the manual of The Cytometric Bead Array System (BD, USA), which are briefly described as follows:
b) The microspheres (cytometric bead array system, BD, USA) capturing the human cytokine IL2, IFN-γ, and TNF-α are taken to mix in a suspension.
c) The mixture of the microspheres for capturing and detection antibody are added into the standard or supernatant sample, incubating at room temperature in the dark; after the incubation is completed, it is washed with washing buffer, then centrifuging, and discarding the supernatant.
The secretion levels of IL-2, IFN-γ and TNF-α are detected by flow cytometry, and the results are shown in FIGS. 8A, 8B, and 8C, wherein ns means p>0.05; *p<0.05; **p<0.01; ***p<0.001, one-way ANOVA.

For `CNC(=O)c1cc(Oc2ccc(NC(=O)Nc3ccc(Cl)c(C(F)(F)F)c3)cc2)ccn1` [sorafenib], the “approximate concentration in the patient's body” value [1] is listed as ~6.5 µM and the “secretion of the cytokine IL2 by CAR T cells” value [2] is listed as “promote CAR T cells to secrete the cytokine IL2”.
